The structures appear in SMILES notation.

The target in the experiment is T1, recombinant human 15-PGDH (Homo sapiens, UniProt P15428).
T1 construct: purchased R&D Systems
T1 sequence (P15428 1-266): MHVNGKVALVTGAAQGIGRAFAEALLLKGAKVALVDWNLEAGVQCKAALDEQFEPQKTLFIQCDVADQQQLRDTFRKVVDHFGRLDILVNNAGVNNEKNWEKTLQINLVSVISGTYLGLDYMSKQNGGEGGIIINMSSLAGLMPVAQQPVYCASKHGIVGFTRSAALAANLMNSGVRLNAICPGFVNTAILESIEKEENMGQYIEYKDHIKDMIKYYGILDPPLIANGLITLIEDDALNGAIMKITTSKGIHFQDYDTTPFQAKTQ
In words: 15-PGDH enzyme inhibition test. Format: biochemical. Particulars: 4 nM recombinant human 15-PGDH, 30 μM PGE2, 1 mM NAD+, 60 minutes after starting the reaction; read-out: IC50 Value. As to the method:
15-PGDH Enzyme Inhibition Test
A test compound and 4 nM recombinant human 15-PGDH (R&D Systems) were added, in 50 mM Tris-HCl (pH 8.0) containing 0.01% TWEEN 20 (Sigma) and 0.01% bovine gamma globulin (Sigma), to a 384-well Flat Bottom Black plate (Corning, 3820), and the resultant was allowed to stand still at room temperature for 12 minutes, and 30 μM PGE2 (Cayman Chemical) and 1 mM NAD+ (Sigma) were added thereto to start the reaction. 60 minutes after starting the reaction, measurement was performed using Synergy 2 (BioTeck) at an excitation wavelength of 340 nm and a fluorescence wavelength of 440 nm. Assuming that a fluorescence signal obtained with an assay buffer added instead of the test compound and NAD+ was 100% and that a signal obtained with NAD+ added was 0%, a concentration corresponding to 50% inhibition plotted on a concentration-reaction curve of the test compound was defined as an IC50 value. Incidentally, in the following tables, an IC50 value smaller than 10 nM was shown as +++, an IC50 value equal to or larger than 10 nM and smaller than 100 nM was shown as ++, and an IC50 value equal to or larger than 100 nM was shown as +.

For the compound `CC1c2cc(N3CCOc4cc(C(=O)N5CCCCC5)cnc43)ccc2C(=O)N1C` (single isomer, unassigned) [16-1 Isomer A], the IC50 was less than 10 nM.

For `CC1c2cc(N3CCOc4cc(C(=O)N5CCCCC5)cnc43)ccc2C(=O)N1C` (single isomer, unassigned) [16-1 Isomer B, 2,3-Dimethyl-5-(7-(piperidine-1-carbonyl)-2,3-dihydro-4H-pyrido[3,2-b] [1,4]oxazin-4-yl)isoindolin-1-one], the IC50 was less than 10 nM.

As to `Cn1nc2cc(N3CCOc4cc(C(=O)N5CCCC6CC65)cnc43)ccn2c1=O` (single isomer, unassigned) [23-1 Isomer A, 7-(7-(2-Azabicyclo[4,1,0]heptane-2-carbonyl)-2,3-dihydro-4H-pyrido[3,2-b][1,4]oxazin-4-yl)-2-methyl-[1,2,4]triazolo[4,3-a]pyridin-3(2H)-one], the IC50 is less than 10 nM.

On to `Cn1nc2cc(N3CCOc4cc(C(=O)N5CCCC6CC65)cnc43)ccn2c1=O` (single isomer, unassigned) [23-1 Isomer B, 7-(7-(2-Azabicyclo[4,1,0]heptane-2-carbonyl)-2,3-dihydro-4H-pyrido[3,2-b][1,4]oxazin-4-yl)-2-methyl-[1,2,4]triazolo[4,3-a]pyridin-3(2H)-one], for which the IC50 is less than 10 nM.

For the compound `Cn1nc2cc(N3CCOc4cc(C(=O)N5CCCC(C)(F)C5)cnc43)ccn2c1=O` (single isomer, unassigned) [23-2 Isomer A], the IC50 is less than 10 nM.

As for `Cn1nc2cc(N3CCOc4cc(C(=O)N5CCCC(C)(F)C5)cnc43)ccn2c1=O` (single isomer, unassigned) [23-2 Isomer B], the IC50 is less than 10 nM.

Take `COC(=O)c1ccc(N2CCOc3cc(C(=O)N4CCCCC4)ccc32)cc1` [Example 1-7]: the IC50 is less than 10 nM.

Consider `N#Cc1ccc(N2CCOc3cc(C(=O)N4CCC(F)(F)CC4)ccc32)cc1` [Example 1-17], for which the IC50 is less than 10 nM.

In the case of `O=C(c1ccc2c(c1)OCCN2c1ccccc1)N1CCCCC1` [Example 1-18], the IC50 is less than 10 nM.

Regarding `Cn1oc2cc(N3CCOc4cc(C(=O)N5CCCCC5)cnc43)ccc2c1=O` [Example 1-19], the IC50 was less than 10 nM.

For the compound `COc1noc2cc(N3CCOc4cc(C(=O)N5CCCCC5)cnc43)ccc12` [Example 1-20], the IC50 was less than 10 nM.

`Cn1nc2cc(N3CCOc4cc(C(=O)N5CCCCC5)cnc43)ccn2c1=O` [Example 1-21]: the IC50 was less than 10 nM.

Take `COCn1nc2cc(N3CCOc4cc(C(=O)N5CCCCC5)cnc43)ccn2c1=O` [Example 1-22]: the IC50 is less than 10 nM.

Consider `CN1Cc2cc(N3CCOc4cc(C(=O)N5CCCCC5)cnc43)ccc2C1=O` [Example 1-23], for which the IC50 is less than 10 nM.

In the case of `COC(=O)c1cc2sc(N3CCOc4cc(C(=O)N5CCCCC5)cnc43)cc2s1` [Example 1-24], the IC50 is less than 10 nM.

With `Cn1nc2cc(N3CCOc4cc(C(=O)N5CCCCC5)ccc43)ccn2c1=O` [Example 1-25], the IC50 was less than 10 nM.

With `Cc1cn2ccc(N3CCOc4cc(C(=O)N5CCCCC5)cnc43)cc2n1` [Example 1-26], the IC50 lay within 10 to 100 nM.

With `CC(C)n1nc2cc(N3CCOc4cc(C(=O)N5CCCCC5)cnc43)ccn2c1=O` [Example 1-27], the IC50 was less than 10 nM.

As to `COCCn1nc2cc(N3CCOc4cc(C(=O)N5CCCCC5)cnc43)ccn2c1=O` [Example 1-28], the IC50 is less than 10 nM.

In the case of `Cn1nc2c(Cl)c(N3CCOc4cc(C(=O)N5CCCCC5)cnc43)ccn2c1=O` [Example 1-29], the IC50 was less than 10 nM.

Take `O=C(c1cnc2c(c1)OCCN2c1ccn2c(=O)[nH]nc2c1)N1CCCCC1` [Example 1-30]: the IC50 was less than 10 nM.

As to `O=C(c1cnc2c(c1)OCCN2c1ccn2c(=O)n(Cc3ccccc3)nc2c1)N1CCCCC1` [Example 1-31], the IC50 was less than 10 nM.

Turning to `O=C(c1cnc2c(c1)OCCN2c1ccn2c(=O)n(Cc3cccnc3)nc2c1)N1CCCCC1` [Example 1-32], the IC50 is less than 10 nM.

For the compound `CN(C)CCn1nc2cc(N3CCOc4cc(C(=O)N5CCCCC5)cnc43)ccn2c1=O` [Example 1-33], the IC50 was less than 10 nM.

On to `O=C(c1cnc2c(c1)OCCN2c1ccn2c(=O)n(Cc3ccncc3)nc2c1)N1CCCCC1` [Example 1-34], for which the IC50 is less than 10 nM.

Take `O=C(c1cnc2c(c1)OCCN2c1ccn2c(=O)n(-c3ccccn3)nc2c1)N1CCCCC1` [Example 1-35]: the IC50 was less than 10 nM.

As to `O=C(c1cnc2c(c1)OCCN2c1ccn2c(=O)n(CC3COC3)nc2c1)N1CCCCC1` [Example 1-36], the half-maximal inhibitory concentration (IC50) is less than 10 nM.

As to `COc1ccc(CN2Cc3cc(N4CCOc5cc(C(=O)N6CCCCC6)cnc54)ccc3C2=O)cc1` [Example 1-37], the IC50 is less than 10 nM.

Consider `Cn1cnc2cc(N3CCOc4cc(C(=O)N5CCCCC5)cnc43)cnc2c1=O` [Example 1-38], for which the IC50 is less than 10 nM.

With `Cn1cnc2cc(N3CCOc4cc(C(=O)N5CCCCC5)cnc43)ncc2c1=O` [Example 1-39], the IC50 was 10 to 100 nM.

Turning to `COC(=O)Cn1nc2cc(N3CCOc4cc(C(=O)N5CCCCC5)cnc43)ccn2c1=O` [Example 1-40], the IC50 was less than 10 nM.

`COCn1nc2cc(N3CCOc4cc(C(=O)N5CCC[C@H](C)C5)cnc43)ccn2c1=O` [Example 1-41]: the IC50 was less than 10 nM.

Regarding `C[C@H]1CCCN(C(=O)c2cnc3c(c2)OCCN3c2ccn3c(=O)[nH]nc3c2)C1` [Example 1-42], the IC50 was less than 10 nM.

In the case of `COCn1nc2cc(N3CCOc4cc(C(=O)N5CCC(F)(F)CC5)cnc43)ccn2c1=O` [Example 1-43], the IC50 is less than 10 nM.

Regarding `CCOCn1nc2cc(N3CCOc4cc(C(=O)N5CCC(F)(F)CC5)cnc43)ccn2c1=O` [Example 1-44], the IC50 was less than 10 nM.

With `CN1Cc2cc(N3CCOc4cc(C(=O)N5CCC(F)(F)CC5)cnc43)cnc2C1=O` [Example 1-45], the half-maximal inhibitory concentration (IC50) is less than 10 nM.

Consider `CN1Cc2cc(N3CCOc4cc(C(=O)N5CCC(F)(F)CC5)cnc43)ncc2C1=O` [Example 1-46], for which the IC50 fell in the range of 10 to 100 nM.

As for `COCCn1nc2cc(N3CCOc4cc(C(=O)N5CCC(F)(F)CC5)cnc43)ccn2c1=O` [Example 1-47], the IC50 was less than 10 nM.

For `CCOCCn1nc2cc(N3CCOc4cc(C(=O)N5CCC(F)(F)CC5)cnc43)ccn2c1=O` [Example 1-48], the IC50 is less than 10 nM.

In the case of `COCCN1Cc2cc(N3CCOc4cc(C(=O)N5CCC(F)(F)CC5)cnc43)ccc2C1=O` [Example 1-49], the IC50 is less than 10 nM.

As for `CCOCCN1Cc2cc(N3CCOc4cc(C(=O)N5CCC(F)(F)CC5)cnc43)ccc2C1=O` [Example 1-50], the half-maximal inhibitory concentration (IC50) is less than 10 nM.

Consider `CCOCCN1Cc2cc(N3CCOc4cc(C(=O)N5CCC(F)(F)CC5)cnc43)ncc2C1=O` [Example 1-51], for which the IC50 lay in the range of 10 to 100 nM.

With `COCn1nc2cc(N3CCCOc4cc(C(=O)N5CCCCC5)cnc43)ccn2c1=O` [Example 1-52], the IC50 is less than 10 nM.

As for `COCn1nc2cc(N3CCCc4cc(C(=O)N5CCCCC5)cnc43)ccn2c1=O` [Example 1-53], the IC50 is less than 10 nM.

As for `CCn1nc2cc(N3CCCc4cc(C(=O)N5CCCCC5)cnc43)ccn2c1=O` [Example 1-54], the IC50 was less than 10 nM.

For the compound `COCCn1nc2cc(N3CCCc4cc(C(=O)N5CCCCC5)cnc43)ccn2c1=O` [Example 1-55], the IC50 is less than 10 nM.

On to `CN1Cc2cc(N3CCCc4cc(C(=O)N5CCCCC5)cnc43)ncc2C1=O` [Example 1-56], for which the IC50 is 10 to 100 nM.

In the case of `CCOCn1nc2cc(N3CCCc4cc(C(=O)N5CCCCC5)cnc43)ccn2c1=O` [Example 1-57], the IC50 was less than 10 nM.

On to `O=C(c1cnc2c(c1)CCCN2c1ccn2c(=O)n(CC3COC3)nc2c1)N1CCCCC1` [Example 1-58], for which the IC50 is less than 10 nM.

In the case of `CNC(=O)c1ccc(N2CCCc3cc(C(=O)N4CCCCC4)cnc32)cc1F` [Example 1-59], the IC50 is less than 10 nM.

For `COCCNC(=O)c1ccc(N2CCCc3cc(C(=O)N4CCCCC4)cnc32)cc1F` [Example 1-60], the IC50 is less than 10 nM.

As for `O=C(NCC1COC1)c1ccc(N2CCCc3cc(C(=O)N4CCCCC4)cnc32)cc1F` [Example 1-61], the 50% inhibitory concentration (IC50) is less than 10 nM.

With `O=C(NC1COC1)c1ccc(N2CCCc3cc(C(=O)N4CCCCC4)cnc32)cc1F` [Example 1-62], the IC50 is less than 10 nM.

As to `CCOCCN1Cc2cc(N3CCCc4cc(C(=O)N5CCCCC5)cnc43)ccc2C1=O` [Example 1-63], the IC50 is less than 10 nM.

As to `COCCN1Cc2cc(N3CCCc4cc(C(=O)N5CCCCC5)cnc43)ccc2C1=O` [Example 1-64], the IC50 was less than 10 nM.

For `O=C(c1cnc2c(c1)CCCN2c1ccc2c(c1)CN(CC1COC1)C2=O)N1CCCCC1` [Example 1-65], the IC50 was less than 10 nM.

`O=C(c1cnc2c(c1)CCCN2c1ccc2c(c1)CN(C1COC1)C2=O)N1CCCCC1` [Example 1-66]: the 50% inhibitory concentration (IC50) is less than 10 nM.

Consider `CN1Cc2cc(N3CCCc4cc(C(=O)N5CCCCC5)cnc43)cnc2C1=O` [Example 1-67], for which the IC50 was less than 10 nM.

As to `CN1Cc2cc(N3CCCc4cc(C(=O)N5CCCCC5)cnc43)ccc2C1=O` [Example 1-68], the IC50 was less than 10 nM.

Source of the values: US12577217B2, “15-PGDH inhibitor” (KYORIN Pharmaceutical Co., Ltd., priority 2019, dated 2026).
